For assay [1], the target named is T1, Enoyl-acyl-carrier protein reductase (Plasmodium falciparum, UniProt Q965D5).
T1 sequence (Q965D5 whole entry): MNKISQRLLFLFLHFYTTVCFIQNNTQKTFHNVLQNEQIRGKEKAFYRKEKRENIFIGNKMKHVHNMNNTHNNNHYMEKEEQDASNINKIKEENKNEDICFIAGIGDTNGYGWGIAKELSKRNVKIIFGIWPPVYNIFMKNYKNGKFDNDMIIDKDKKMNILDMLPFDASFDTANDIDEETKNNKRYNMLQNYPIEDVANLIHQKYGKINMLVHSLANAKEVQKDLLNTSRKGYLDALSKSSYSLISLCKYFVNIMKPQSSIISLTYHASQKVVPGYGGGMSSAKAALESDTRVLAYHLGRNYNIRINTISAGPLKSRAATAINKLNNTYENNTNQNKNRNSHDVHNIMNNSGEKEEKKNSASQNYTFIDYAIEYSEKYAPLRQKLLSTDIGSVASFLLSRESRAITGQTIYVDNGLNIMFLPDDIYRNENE
The assay is described as follows: (§1) Inhibition of Plasmodium falciparum Fabl.

Assay [2] can be described thus: (§2) Inhibition of Plasmodium falciparum FabG.
Assay [3] has as its system Plasmodium falciparum. The assay is described as follows: Antimalarial activity against chloroquine-sensitive Plasmodium falciparum D6. The format is functional, organism-based.
Assay [4] relates to Plasmodium falciparum. The experiment in a line: Antimalarial activity against multidrug-resistant Plasmodium falciparum K1. Type of assay: functional, organism-based.
Assay [5] has as its system Plasmodium falciparum. The assay is described as follows: Antimalarial activity against chloroquine-resistant Plasmodium falciparum FCB1. The following applies: FcB1/Columbia. The format is functional, organism-based.
The test system of assay [6] is Plasmodium falciparum. The experiment in a line: Antimalarial activity against Plasmodium falciparum after 32 hrs. The format is functional, organism-based.
Assay [7] has as its system Plasmodium falciparum. The assay is described as follows: Antimalarial activity against Plasmodium falciparum after 48 hrs. The format is functional, organism-based.
Assay [8] has as its system Plasmodium falciparum. The assay is described as follows: Antimalarial activity against Plasmodium falciparum after 72 hrs. The format is functional, organism-based.
The target in assay [9] is T2, Enoyl-acyl-carrier protein reductase (Plasmodium falciparum) (UniProt Q965D5).
T2 sequence (whole entry): T1 sequence (Q965D5 whole entry)
Described as §1.

The test system of assay [10] is Plasmodium falciparum. The description is as §2. The following applies: concentration not given here.
The test system of assay [11] is Plasmodium falciparum. The experiment in a line: Antimalarial activity against Plasmodium falciparum W2. Type of assay: functional, organism-based.
A further assay relates to Plasmodium vivax. The experiment in a line: Antimalarial activity against Plasmodium vivax infected in human HepG2-A16 cells assessed as reduction of trophozoites level. The format is functional. Also on record: scale not given: the % may be the effect or the level left.
Assay [12] has as its system Plasmodium falciparum. The experiment in a line: Antimalarial activity against chloroquine-resistant Plasmodium falciparum Dd2. Type of assay: functional, organism-based.
Assay [13] relates to Plasmodium falciparum. The assay is described as follows: Antimalarial activity against chloroquine-sensitive Plasmodium falciparum PoW. Type of assay: functional, organism-based.
In assay [14] the test system is Plasmodium falciparum. The assay is described as follows: Antimalarial activity against Plasmodium falciparum T9-96. The format is functional, organism-based.
Assay [15] has as its system Plasmodium falciparum. The assay is described as follows: Antimalarial activity against chloroquine-sensitive Plasmodium falciparum D10. Type of assay: functional, organism-based.
For assay [16], the system named is Plasmodium falciparum. The assay is described as follows: Antimalarial activity against Plasmodium falciparum D6. Type of assay: functional, organism-based.
The test system of assay [17] is Plasmodium falciparum. The assay is described as follows: Antimalarial activity against Plasmodium falciparum FCA. The format is functional, organism-based.
Assay [18] relates to Plasmodium falciparum. The experiment in a line: Antimalarial activity against Plasmodium falciparum FCB1-R. Type of assay: functional, organism-based.
Assay [19] relates to Plasmodium falciparum. The assay is described as follows: Antimalarial activity against Plasmodium falciparum FCA 20. The format is functional, organism-based.

The structures appear in SMILES notation. Values after ≈ are worked out from the molar mass of the structure shown.

This is an account of results in ChEMBL document CHEMBL1177693, “Antimalarials from nature” (Bioorg Med Chem, 2009).

The term IC50 denotes the midpoint of a concentration-inhibition curve. For the compound `C=C1C(=O)OC[C@H]1[C@@H](/C=C(\C)CC(=O)C=C(C)C)OC(C)=O`, the IC50 in assay [1] was 65300 nM; in assay [2], 20 µg/mL (≈ 65.3 µM).

For the compound `O=C(O)[C@@H]1[C@H](C(=O)O)[C@H]2CC[C@@H]1O2` [ENDOTHALL], the IC50 in the assay with Plasmodium falciparum [3] turned out to be 7800 nM. With `CC[C@@]12CCCN3CC[C@]4(c5ccc(OC)c(O)c5N(C(C)=O)[C@@H]4CC1)[C@H]32` [ASPIDOCARPINE], the IC50 in the assay with Plasmodium falciparum [4] is 19 nM.

The compound `O=C(Oc1cc(O)cc2c1C[C@H](O)[C@@H](c1ccc(O)c(O)c1)O2)c1cc(O)c(O)c(O)c1` came in with a half-inhibitory concentration (IC50) in the assay with Plasmodium falciparum [5] of 1200 nM.

With `CC(C)=CCC/C(C)=C/CC/C(C)=C/CC[C@@]1(C)[C@H](CCCO)/C(=C(/C)C=O)CC[C@]1(C)O` [IRIDAL], the IC50 with Plasmodium falciparum [6] was found to be 14 µg/mL (≈ 30.5 µM); with Plasmodium falciparum [7], 26 µg/mL (≈ 56.7 µM); with Plasmodium falciparum [8] it was 1.8 µg/mL (≈ 3.92 µM).

By inhibition is commonly meant the relative decrease from the control value, in per cent. The compound `C=C1C(=O)OC[C@H]1[C@H](O)/C=C(\C)CC(=O)C=C(C)C` had a fold change (FC) in assay [9] of 5. The inhibition in the assay with Plasmodium falciparum [10] came to 25%.

For the compound `CN1C2=CC(O)=c3ccccc3=NC2c2ccccc21` (stereo not drawn) [CRYPTOHEPTINE], in the assay on Plasmodium falciparum [4], 800 nM corresponded to half-maximal inhibition (IC50). Turning to `CN1CCc2cc3c(c4c2c1cc1ccccc14)OCO3` [DEHYDROROEMERINE], the IC50 in the assay with Plasmodium falciparum [11] was determined as 360 nM. As for `CC(CO)CCC(=O)[C@@H](C)[C@H]1[C@H](O)C[C@H]2[C@@H]3CCC4=CC(=O)CC[C@]4(C)[C@H]3CC[C@]12C` (stereo partly drawn), the Activity with Plasmodium vivax stood at 47%. Turning to `O=c1c(-c2ccc(O)cc2)coc2cc(O)cc(O)c12` [GENISTEIN], the figures for the IC50 in the assay with Plasmodium falciparum [12] and in the assay on Plasmodium falciparum [13] were 4.1 µg/mL (≈ 15.2 µM) and 2 µg/mL (≈ 7.4 µM), respectively. Consider `C/C=C/C/C=C/CCC(=O)[C@H]1O[C@H]1C(N)=O` [CERULENIN], for which, in the assay with Plasmodium falciparum [3], the IC50 came out at 10100 nM. `CO[C@@H]1C=C[C@@]23c4cc5c(cc4CN(C[C@@H]2O)[C@H]3C1)OCO5` [(+)-HAEMANTHAMINE]: the IC50 in the assay with Plasmodium falciparum [14] was found to be 0.7 µg/mL (≈ 2.32 µM).

As to `Cc1c2ccncc2c(C)c2c1[nH]c1ccccc12` [ELLIPTECINE], the IC50 in the assay on Plasmodium falciparum [4] came out at 73 nM. With `COc1ccc(-c2cc(=O)c3c(O)cc(O)cc3o2)cc1` [ACACETIN], the IC50 with Plasmodium falciparum [12] came out at 12.6 µg/mL (≈ 44.3 µM); in the assay on Plasmodium falciparum [13], 5.5 µg/mL (≈ 19.3 µM). For `COc1cc(O)cc2c1c(=O)c1ccccc1n2C` [TEGERRARDIN A], in the assay on Plasmodium falciparum [15], the midpoint of inhibition, the IC50, lay at 12300 nM. On to `COc1ccc(-c2coc3cc(O)ccc3c2=O)cc1O` [CALYCOSIN], for which the half-inhibitory concentration (IC50) with Plasmodium falciparum [12] is 9.8 µg/mL (≈ 34.5 µM); with Plasmodium falciparum [13], 4.2 µg/mL (≈ 14.8 µM).

Regarding `COc1cc2c(cc1OC)CN1CCc3cc(OC)c(OC)cc3[C@@H]1C2` [XYLOPININE], in the assay with Plasmodium falciparum [11], the IC50 was 52300 nM. On to `COc1cc(/C=C/C(=O)CC(=O)/C=C/c2ccc(O)c(OC)c2)ccc1O` [CURCUMIN], for which the IC50 in the assay on Plasmodium falciparum [11] was determined as 4.2 µg/mL; in the assay with Plasmodium falciparum [16] it was 3.5 µg/mL (≈ 9.5 µM). Compound `O=C(O[C@H]1Cc2c(O)cc(O)cc2O[C@@H]1c1ccc(O)c(O)c1)c1cc(O)c(O)c(O)c1` [CATECHIN GALLATE] came in with an IC50 in the assay on Plasmodium falciparum [5] of 1000 nM. Regarding `C=C1C(=O)O[C@@H]2/C=C(/C)C(=O)/C=C/[C@](C)(O)C[C@@H](OC(=O)C(C)C)[C@@H]12` [TAGITININ C], the half-inhibitory concentration (IC50) in the assay with Plasmodium falciparum [17] worked out at 0.33 µg/mL (≈ 0.947 µM).

For `C=Cc1c[n+]2c(c(O)c1C[C@H]1c3[nH]c4ccccc4c3CCN1C)-c1[nH]c3c([C@H]4CCCN4C)c(O)ccc3c1CC2` [CHRYSOPENTAMINE], the IC50 in the assay with Plasmodium falciparum [18], in the assay with Plasmodium falciparum [19] and with Plasmodium falciparum [11] was 500 nM each time. Consider `C=C1C(=O)O[C@H]2[C@H]1[C@@H](OC(C)=O)CC(=C)[C@]1(O)CC=C(C)[C@H]21`, for which the IC50 in the assay on Plasmodium falciparum [12] turned out to be 10.8 µg/mL (≈ 35.5 µM).

In the assay with Plasmodium falciparum [14], `CO[C@@H]1C=C[C@]23c4cc5c(cc4[C@@H](O)N(C[C@@H]2O)[C@H]3C1)OCO5` had an IC50 of 0.34 µg/mL (≈ 1.07 µM).
